Data set [1] in a line: Human liver microsomes (HLMs) intrinsic clearance assay. In kind it is in vitro ADME. In general terms: Liver microsomes are a subcellular fraction often used to study metabolism.
Another data set deals with MV4;11 cells. Kind of data set: Proliferation assay, MV4;11 (CellTiter-Glo, 7 days). In kind it is cell-based, human. To be noted: read-out: MV-4-11 IC50. Put shortly: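 Cells were seeded at line-specific low densities for linear growth, exposed to 3.16-fold serial compound dilutions at 0.1% DMSO, and incubated 7 days at 37 °C, 5% CO2. Viability was read by CellTiter-Glo 2.0 luminescence; IC50 came from one-site fits of % inhibition, normalized between DMSO-treated cells (100%) and a day-0 plate (0%).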

A further data set has as its target hERG (Homo sapiens (Human), UniProt Q12809). Briefly: hERG assay 1 (standard), SyncroPatch 384PE. Format: cell-based. To be noted: CHO cells, room temperature, up to 40 uM. Put shortly: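 Automated patch clamp on hERG-expressing CHO-K1 cells at room temperature, +60/−40 mV protocol every 15 s. Six-point cumulative concentrations 139 nM to 40 uM (0.33% DMSO final); IC50 from one-site fit of % inhibition. Wells required ≥30 MegaOhm seal, current >0.2 nA, Z prime >0.4.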

[2] abbreviates: human, microsomes, pH 7.4, HLM CLint.
[3] abbreviates: human, microsomes, 1 µM, pH 7.4.

Read-outs that look alike come from different tables or passages of the source.

Sequence of hERG (Q12809 whole entry): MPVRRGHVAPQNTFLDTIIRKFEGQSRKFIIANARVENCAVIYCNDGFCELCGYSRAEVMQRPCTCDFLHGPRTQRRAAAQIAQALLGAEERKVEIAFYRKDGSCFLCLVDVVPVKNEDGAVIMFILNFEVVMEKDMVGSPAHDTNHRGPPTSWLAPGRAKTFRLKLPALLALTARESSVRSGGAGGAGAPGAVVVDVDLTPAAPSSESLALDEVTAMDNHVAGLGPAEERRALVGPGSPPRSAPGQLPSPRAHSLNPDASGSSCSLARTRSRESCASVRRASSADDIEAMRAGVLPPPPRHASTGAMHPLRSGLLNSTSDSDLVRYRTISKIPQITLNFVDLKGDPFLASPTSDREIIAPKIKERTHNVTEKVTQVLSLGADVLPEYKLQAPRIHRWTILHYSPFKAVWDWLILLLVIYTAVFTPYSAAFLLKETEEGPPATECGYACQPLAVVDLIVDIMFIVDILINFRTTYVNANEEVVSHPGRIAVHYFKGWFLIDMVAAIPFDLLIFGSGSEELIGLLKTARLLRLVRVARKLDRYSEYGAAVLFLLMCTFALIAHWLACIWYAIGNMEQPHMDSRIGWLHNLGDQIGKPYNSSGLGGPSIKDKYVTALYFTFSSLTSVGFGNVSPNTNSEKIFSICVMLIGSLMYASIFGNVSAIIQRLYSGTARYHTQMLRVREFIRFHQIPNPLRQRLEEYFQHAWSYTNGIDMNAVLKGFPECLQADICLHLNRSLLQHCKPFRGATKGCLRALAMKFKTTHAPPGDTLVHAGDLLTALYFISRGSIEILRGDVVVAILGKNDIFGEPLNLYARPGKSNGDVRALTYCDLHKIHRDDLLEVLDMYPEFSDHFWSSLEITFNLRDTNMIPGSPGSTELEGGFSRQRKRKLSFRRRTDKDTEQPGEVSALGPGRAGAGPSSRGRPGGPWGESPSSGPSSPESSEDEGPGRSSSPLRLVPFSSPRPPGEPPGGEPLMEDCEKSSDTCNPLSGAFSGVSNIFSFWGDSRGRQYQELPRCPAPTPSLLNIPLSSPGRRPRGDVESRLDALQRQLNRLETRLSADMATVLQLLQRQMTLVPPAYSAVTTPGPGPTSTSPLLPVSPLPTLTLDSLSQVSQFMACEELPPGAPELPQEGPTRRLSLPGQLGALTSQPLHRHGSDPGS

`C=C1C[C@@H]2CC[C@H]1[C@@H](C(=O)N1CCC(C(=O)c3cn(-c4ccc(F)cc4C(=O)N(C(C)C)C(C)C)c4cnccc34)CC1)N2` [Example 18, 5-Fluoro-N,N-diisopropyl-2-(3-(1-((1S,3S,4R)-5-methylene-2-azabicyclo[2.2.2]-octane-3-carbonyl)piperidine-4-carbonyl)-1H-pyrrolo[2,3-c]pyridin-1-yl)benzamide] showed a microsomal CLint at 1 µM in data set [1] (setting [2]) of 172 µL/min/mg. Also, the IC50 (as a rule, the concentration that gives 50% inhibition) with MV4;11 cells (Homo sapiens, MV4-11, 168 h) was 44 nM; against hERG, > 40 µM.

For `Cc1c(C(=O)C2CCN(C(=O)[C@H]3NC[C@@H]4C[C@@H]43)CC2)c2ccncc2n1-c1ccc(F)cc1C(=O)N(C(C)C)[C@H](C)C(F)(F)F` (single isomer, unassigned) [Example 57-1], the microsomal CLint at 1 µM in data set [1] (setting [2]) stood at 84 µL/min/mg. For the same compound, the IC50 in the data set with MV4;11 cells (Homo sapiens, MV4-11, 168 h) is 51 nM; against hERG, > 38.5 µM.

Regarding `CC(C)N(C(=O)c1cc(F)ccc1-n1cc(C(=O)C2CCN(C(=O)[C@H]3NC[C@@H]4CCC[C@@H]43)CC2)c2ccncc21)C(C)C` [Example 21, 5-Fluoro-N,N-diisopropyl-2-(3-(1-((1S,3αR,6αS)-octahydrocyclopenta[c]pyrrole-1-carbonyl)piperidine-4-carbonyl)-1H-pyrrolo[2,3-c]pyridin-1-yl)benzamide], in data set [1] (setting [2]), the microsomal CLint at 1 µM was found to be 197 µL/min/mg. The IC50 in the data set with MV4;11 cells (Homo sapiens, MV4-11, 168 h) is 27 nM; at hERG, > 40 µM.

In data set [1] (setting [2]), `CC(C)N(C(=O)c1cc(F)ccc1-n1cc(C(=O)[C@@H]2CCN(C(=O)[C@H]3N[C@@H]4CC[C@H]3C4)C2)c2ccncc21)C(C)C` [Example 3, 2-(3-((R)-1-((1R,3S,4S)-2-Azabicyclo[2.2.1]heptane-3-carbonyl)pyrrolidine-3-carbonyl)-1H-pyrrolo[2,3-c]pyridin-1-yl)-5-fluoro-N,N-diisopropylbenzamide] registered a microsomal CLint at 1 µM of 41 µL/min/mg. Besides, the IC50 with MV4;11 cells (Homo sapiens, MV4-11, 168 h) amounted to 99 nM; on hERG, 38.8 µM.

For the compound `CCN(C(=O)c1cc(F)ccc1-n1c(C)c(C(=O)[C@@H]2CCN(C(=O)[C@@H]3CCC4(CC4)N3)[C@@H](C)C2)c2ccncc21)C(C)C` (single isomer, unassigned) [Example 52-2, N-Ethyl-5-fluoro-N-isopropyl-2-(2-methyl-3-((2R*,4S*)-2-methyl-1-((S)-4-azaspiro[2.4]heptane-5-carbonyl)piperidine-4-carbonyl)-1H-pyrrolo[2,3-c]pyridin-1-yl)benzamide], in data set [1] (1 mg/mL HLM, NADPH), the “HLM CLint” value was found to be 150 µL/min/mg. The IC50 in the data set on MV4;11 cells was 56 nM; at hERG, 14.2 µM.

`CCN(C(=O)c1cc(F)ccc1-n1cc(C(=O)C2CN(C(=O)[C@H]3N[C@@H]4CC[C@H]3C4)C2)c2ccncc21)C(C)C` [Example 8, 2-(3-(1-((1R,3S,4S)-2-Azabicyclo[2.2.1]heptane-3-carbonyl)azetidine-3-carbonyl)-1H-pyrrolo[2,3-c]pyridin-1-yl)-N-ethyl-5-fluoro-N-isopropylbenzamide] showed a microsomal CLint at 1 µM in data set [1] (setting [2]) of 21 µL/min/mg. Further, the half-inhibitory concentration (IC50) with MV4;11 cells (Homo sapiens, MV4-11, 168 h) is 100 nM; against hERG, > 40 µM.

Take `COCCN(C)CCC[C@H](C(C)C)N1CCC(C(=O)c2cn(-c3ccc(F)cc3C(=O)N(C(C)C)C(C)C)c3cnccc23)CC1` (racemic) [Example 23, rac-(R)-5-Fluoro-N,N-diisopropyl-2-(3-(1-(6-((2-methoxyethyl)(methyl)amino)-2-methylhexan-3-yl)piperidine-4-carbonyl)-1H-pyrrolo[2,3-c]pyridin-1-yl)benzamide]: the microsomal CLint at 1 µM in data set [1] (setting [2]) was determined as 156 µL/min/mg. Also, the IC50 amounted to 20 nM in the data set with MV4;11 cells (Homo sapiens, MV4-11, 168 h) and 30.6 µM on hERG.

Regarding `CC(C)N(C(=O)c1cc(F)ccc1-n1cc(C(=O)C2CCN(C[C@H]3CC[C@H](NS(C)(=O)=O)CC3)CC2)c2ccncc21)C(C)C` [Example 17, 5-Fluoro-N,N-diisopropyl-2-(3-(1-(((1r,4r)-4-(methylsulfonamido)cyclohexyl)-methyl)piperidine-4-carbonyl)-1H-pyrrolo[2,3-c]pyridin-1-yl)benzamide], the microsomal CLint at 1 µM in data set [1] (setting [2]) was 52 µL/min/mg. For the same compound, the concentration for half-maximal inhibition (IC50) in the data set with MV4;11 cells (Homo sapiens, MV4-11, 168 h) was found to be 320 nM; against hERG it was 9.1 µM.

In turn, `CC(C)N(C(=O)c1cc(F)ccc1-n1cc(C(=O)C2CN(C(=O)[C@H]3N[C@@H]4CC[C@H]3C4)C2)c2ccnc(F)c21)C(C)C` [Example 15, 2-(3-(1-((1R,3S,4S)-2-Azabicyclo[2.2.1]heptane-3-carbonyl)azetidine-3-carbonyl)-7-fluoro-1H-pyrrolo[2,3-c]pyridin-1-yl)-5-fluoro-N,N-diisopropylbenzamide] displayed a microsomal CLint at 1 µM in data set [1] (setting [2]) of 132 µL/min/mg. The IC50 in the data set on MV4;11 cells (Homo sapiens, MV4-11, 168 h) is 53 nM; against hERG, 24.9 µM.

As to `Cc1c(C(=O)C2CCN(C(=O)[C@@H]3CCC4(CC4)N3)CC2)c2ccncc2n1-c1ccc(F)cc1C(=O)N1[C@H](C)COC[C@H]1C` (single isomer, unassigned) [Example 58-2], the “HLM CLint” value in data set [1] (1 mg/mL HLM, NADPH) is 85 µL/min/mg. For the same compound, the 50% inhibitory concentration (IC50) in the data set on MV4;11 cells (Homo sapiens, MV4-11, 168 h) was 35 nM; at hERG, > 40 µM.

Consider `CC(C)N(C(=O)c1cc(F)ccc1-n1cc(C(=O)C2CCN(C(=O)[C@@H]3CC4(CC4)CN3)CC2)c2ccncc21)C(C)C` [Example 26, (S)-2-(3-(1-(5-Azaspiro[2.4]heptane-6-carbonyl)piperidine-4-carbonyl)-1H-pyrrolo[2,3-c]pyridin-1-yl)-5-fluoro-N,N-diisopropylbenzamide], for which the microsomal CLint at 1 µM in data set [1] (human, microsomes, pH 7.4, 1 mg/mL HLM, NADPH, read-out: HLM CLint) was found to be 51 µL/min/mg. In addition, the IC50 in the data set with MV4;11 cells (Homo sapiens, MV4-11, 168 h) was 50 nM; against hERG, > 40 µM.

On to `Cc1c(C(=O)C2CCN(C(=O)[C@@H]3CCC(C)(C)N3)CC2)c2ccncc2n1-c1ccc(F)cc1C(=O)N(C(C)C)C(C)C` (single isomer, unassigned) [Compound 56-2], for which the “HLM CLint” value in data set [1] (setting [3]) was 91 µL/min/mg. Moreover, the IC50 in the data set on MV4;11 cells (Homo sapiens, MV4-11, 168 h) is 35 nM; on hERG, > 40 µM.

Take `Cc1c(C(=O)C2CCN(C(=O)[C@H]3NC[C@@H]4C[C@@H]43)CC2)c2ccncc2n1-c1ccc(F)cc1C(=O)N(C(C)C)C(C)C` (single isomer, unassigned) [Example 55-2]: the “HLM CLint” value in data set [1] (setting [3]) worked out at 194 µL/min/mg. Also, the values for the IC50 in the data set on MV4;11 cells and against hERG were 31 nM and > 40 µM, respectively.

For `CCN(C(=O)c1cc(F)ccc1-n1c(C)c(C(=O)C2CCN(C(=O)[C@H]3N[C@@H]4CC[C@H]3C4)CC2)c2ccncc21)C(C)C` [Example 46, 2-(3-(1-((1R,3S,4S)-2-Azabicyclo[2.2.1]heptane-3-carbonyl)piperidine-4-carbonyl)-2-methyl-1H-pyrrolo[2,3-c]pyridin-1-yl)-N-ethyl-5-fluoro-N-isopropylbenzamide], the microsomal CLint at 1 µM in data set [1] (setting [2]) amounted to 50 µL/min/mg. The IC50 was 37 nM with MV4;11 cells (Homo sapiens, MV4-11, 168 h) and > 40 µM at hERG.

As for `CC(C)N(C(=O)c1cc(F)ccc1-n1cc(C(=O)C2CCN(C(=O)[C@H]3N[C@@H]4CC[C@H]3C4)CC2)c2c(F)cncc21)C(C)C.O=CO` [Example 44, 2-(3-(1-((1R,3S,4S)-2-Azabicyclo[2.2.1]heptane-3-carbonyl)piperidine-4-carbonyl)-4-fluoro-1H-pyrrolo[2,3-c]pyridin-1-yl)-5-fluoro-N,N-diisopropylbenzamide 1·formic acid], in data set [1] (setting [2]), the microsomal CLint at 1 µM is 17 µL/min/mg. Besides, the IC50 with MV4;11 cells (Homo sapiens, MV4-11, 168 h) was 65 nM; at hERG, > 40 µM.

For the origin of these results see patent US20240335431A1, “1-H-PYRROLO[2,3-c]PYRIDINE COMPOUNDS” (Acerta Pharma B.V., priority 2023, published 2024).
